≈ marks a conversion by molar mass, not a printed value. Calls of active or inactive are those of the source. No cut-off for these calls is given here.

The subject of data set [1] is COLO 205. The data set can be described thus: Cytotoxicity against human COLO205 cells assessed as reduction in cell viability after 24 hrs by MTT assay. The following applies: COLO 205, 24 h. It counts as functional, cell-based. Background: Tetrazolium assays rely on reduction of a dye to a coloured formazan, in cell work by metabolically active cells.
Data set [2] has as its system FHC. The data set can be described thus: Cytotoxicity against human FHC cells assessed as reduction in cell viability at 100 ug/ml after 24 hrs by MTT assay. It counts as cell-based.
Data set [3] concerns U-937. The experiment in a line: Cytotoxicity against human U937 cells assessed as reduction in cell viability after 24 hrs by MTT assay. It counts as functional, cell-based. Particulars: U-937, 24 h.
Data set [4] relates to SK-OV-3. The experiment in a line: Cytotoxicity against human SKOV3 cells assessed as reduction in cell viability after 24 hrs by MTT assay. It counts as functional, cell-based. Particulars: SK-OV-3, 24 h.
For data set [5], the system named is DU-145. The data set can be described thus: Cytotoxicity against human DU145 cells assessed as reduction in cell viability after 24 hrs by MTT assay. The data set is classed as functional, cell-based. Particulars: DU-145, 24 h.
Data set [6] relates to THP-1. The data set can be described thus: Cytotoxicity against human THP1 cells assessed as reduction in cell viability after 24 hrs by MTT assay. The data set is classed as functional, cell-based. The following applies: THP-1, 24 h.
Data set [7] deals with DU-145. The experiment in a line: Cytotoxicity against human DU145 cells assessed as reduction in cell viability at 100 ug/ml after 24 hrs by MTT assay. The data set is classed as functional, cell-based.
The subject of data set [8] is U-937. The experiment in a line: Cytotoxicity against human U937 cells assessed as reduction in cell viability at 100 ug/ml after 24 hrs by MTT assay. The data set is classed as functional, cell-based.
The subject of data set [9] is THP-1. The experiment in a line: Cytotoxicity against human THP1 cells assessed as reduction in cell viability at 100 ug/ml after 24 hrs by MTT assay. The data set is classed as functional, cell-based.
Data set [10] relates to SK-OV-3. The data set can be described thus: Cytotoxicity against human SKOV3 cells assessed as reduction in cell viability at 100 ug/ml after 24 hrs by MTT assay. The data set is classed as functional, cell-based.
Data set [11] deals with COLO 205. The data set can be described thus: Cytotoxicity against human COLO205 cells assessed as reduction in cell viability at 100 ug/ml after 24 hrs by MTT assay. The data set is classed as functional, cell-based.
In data set [12] the test system is FHC. The experiment in a line: Cytotoxicity against human FHC cells assessed as reduction in cell viability after 24 hrs by MTT assay. The data set is classed as cell-based.

Consider `COc1cc2nc(N3CCOCC3)nc(NS(=O)(=O)c3cccc(C(F)(F)F)c3)c2cc1OC`, for which the half-inhibitory concentration (IC50) in data set [1] was 61.8 µg/mL (≈ 124 µM); in data set [3], 28.7 µg/mL (≈ 57.6 µM); in data set [4] it was 50.5 µg/mL (≈ 101 µM); in data set [5], 45.8 µg/mL (≈ 91.8 µM); in [6], 38.8 µg/mL (≈ 77.9 µM). Moreover, the Activity entry in data set [2] is reported as “Non-Toxic”.

For `COc1cc2nc(N3CCCC3)nc(NS(=O)(=O)c3cccs3)c2cc1OC`, the outcome in data set [7], in [8], in data set [9], in data set [10] and in data set [11] was inactive. Further, the Activity result in [2] is “Non-Toxic”.

As to `COc1cc2nc(N3CCCC3)nc(NS(=O)(=O)C3CC3)c2cc1OC`, the 50% inhibitory concentration (IC50) in data set [12] was found to be 66.6 µg/mL (≈ 176 µM); in data set [1], 10.2 µg/mL (≈ 26.8 µM); in data set [3] it was 6.43 µg/mL (≈ 17 µM); in data set [4], 17.6 µg/mL (≈ 46.4 µM); in data set [5] it was 11.1 µg/mL (≈ 29.3 µM); in data set [6], 9.13 µg/mL (≈ 24.1 µM).

Turning to `COc1cc([C@@H]2c3cc4c(cc3[C@@H](O[C@@H]3O[C@@H]5CO[C@@H](C)O[C@H]5[C@H](O)[C@H]3O)[C@H]3COC(=O)[C@H]23)OCO4)cc(OC)c1O` [ETOPOSIDE], the IC50 in data set [12] was found to be 49.3 µg/mL (≈ 83.8 µM); in data set [1], 5.12 µg/mL (≈ 8.7 µM); in data set [3], 2.89 µg/mL (≈ 4.91 µM); in [4], 3.84 µg/mL (≈ 6.52 µM); in [5], 6.17 µg/mL (≈ 10.5 µM); in [6], 4.42 µg/mL (≈ 7.51 µM).

Consider `COc1ccc(S(=O)(=O)Nc2nc(Cl)nc3cc(OC)c(OC)cc23)cc1C`, for which the half-maximal inhibitory concentration (IC50) is 57 µg/mL (≈ 134 µM) in data set [1]; 41.1 µg/mL (≈ 96.9 µM) in data set [3]; 68.1 µg/mL (≈ 161 µM) in data set [4]; 39.5 µg/mL (≈ 93.1 µM) in data set [5]; 79 µg/mL (≈ 186 µM) in data set [6]. For the same molecule, the Activity result in data set [2] was “Non-Toxic”.

Consider `COc1cc2nc(Cl)nc(NS(=O)(=O)c3cccc4c3OCO4)c2cc1OC`, for which the result in [7] and in [11] was inactive. The Activity result in [2] is “Non-Toxic”. Also, the 50% inhibitory concentration (IC50) amounted to 89.6 µg/mL (≈ 211 µM) in data set [3], 78.1 µg/mL (≈ 184 µM) in [4] and 48.6 µg/mL (≈ 115 µM) in [6].

`COc1ccc(S(=O)(=O)Nc2nc(Cl)nc3cc(OC)c(OC)cc23)cc1`: the outcome in [7], in [8], in [9], in [10] and in data set [11] was inactive. Further, the Activity result in data set [2] is reported as “Non-Toxic”.

Turning to `COc1cc2nc(Cl)nc(NS(=O)(=O)C3CC3)c2cc1OC`, the result in [7], in data set [8], in data set [9], in data set [10] and in [11] was inactive. The Activity result in data set [2] is recorded as “Non-Toxic”.

For `COc1cc2nc(Cl)nc(NS(=O)(=O)c3cccc4ccccc34)c2cc1OC`, the Activity entry in data set [2] is given as “Non-Toxic”. Moreover, the IC50 in [3] is 35.3 µg/mL (≈ 82 µM); in data set [4], 95.3 µg/mL (≈ 222 µM); in [5] it was 63.6 µg/mL (≈ 148 µM); in data set [6], 82.4 µg/mL (≈ 192 µM). For the same molecule, the outcome in data set [11] was inactive.

With `COc1cc2nc(Cl)nc(NS(C)(=O)=O)c2cc1OC`, the IC50 in [12] was 88.1 µg/mL (≈ 277 µM); in data set [4], 88 µg/mL (≈ 277 µM); in data set [6], 99.7 µg/mL (≈ 314 µM). Besides, the result in data set [7], in [8] and in data set [11] was inactive.

For the molecule `COc1cc2nc(Cl)nc(NS(=O)(=O)c3cccs3)c2cc1OC`, the half-inhibitory concentration (IC50) in [12] is 98.7 µg/mL (≈ 256 µM); in [1], 27.5 µg/mL (≈ 71.3 µM); in [3], 10.1 µg/mL (≈ 26.1 µM); in data set [4] it was 19.1 µg/mL (≈ 49.4 µM); in [5], 16.4 µg/mL (≈ 42.6 µM); in data set [6], 11.2 µg/mL (≈ 29.1 µM).

Take `COc1cc2nc(Cl)nc(NS(=O)(=O)c3ccccc3)c2cc1OC`: the half-inhibitory concentration (IC50) in [12] was found to be 73 µg/mL (≈ 192 µM); in data set [1] it was 19 µg/mL (≈ 50.1 µM); in [3] it was 6.06 µg/mL (≈ 16 µM); in data set [4], 9.23 µg/mL (≈ 24.3 µM); in data set [5], 12.3 µg/mL (≈ 32.5 µM); in data set [6] it was 8.17 µg/mL (≈ 21.5 µM).

With `COc1cc2nc(Cl)nc(NS(=O)(=O)Cc3cccc(I)c3)c2cc1OC`, the outcome in data set [7], in data set [10] and in data set [11] was inactive. In [2], the Activity entry is on record as “Non-Toxic”. The IC50 was 66.5 µg/mL (≈ 128 µM) in data set [3] and 96.2 µg/mL (≈ 185 µM) in data set [6].

For the molecule `COc1cc2nc(Cl)nc(NS(=O)(=O)Cc3ccccc3)c2cc1OC`, the result in data set [7], in data set [9], in data set [10] and in [11] was inactive. Also, the Activity result in data set [2] is “Non-Toxic”. In data set [3], the 50% inhibitory concentration (IC50) turned out to be 91.7 µg/mL (≈ 233 µM).

As to `COc1cc2nc(N3CCOCC3)nc(NS(=O)(=O)c3cccc4c3OCO4)c2cc1OC`, the outcome in data set [7], in data set [8], in [10] and in data set [11] was inactive. In [2], the Activity entry is “Non-Toxic”. For the same molecule, in data set [6], the IC50 is 71.6 µg/mL (≈ 151 µM).

For the molecule `COc1cc2nc(Cl)nc(NS(=O)(=O)c3ccc(C)cc3C)c2cc1OC`, the IC50 in [12] is 73.1 µg/mL (≈ 179 µM); in data set [1], 49 µg/mL (≈ 120 µM); in data set [3] it was 65.1 µg/mL (≈ 160 µM); in data set [4] it was 25.8 µg/mL (≈ 63.2 µM); in [5], 47.8 µg/mL (≈ 117 µM); in [6], 40.4 µg/mL (≈ 99.1 µM).

`COc1cc2nc(N3CCOCC3)nc(NS(=O)(=O)C3CC3)c2cc1OC`: the 50% inhibitory concentration (IC50) in [12] is 73.2 µg/mL (≈ 186 µM); in data set [1] it was 49.1 µg/mL (≈ 124 µM); in data set [3], 8.09 µg/mL (≈ 20.5 µM); in [4] it was 32.1 µg/mL (≈ 81.5 µM); in data set [5] it was 25.1 µg/mL (≈ 63.5 µM); in data set [6], 13.8 µg/mL (≈ 34.9 µM).

For `COc1cc2nc(Cl)nc(NS(=O)(=O)c3cccc(C(F)(F)F)c3)c2cc1OC`, the IC50 was determined as 99 µg/mL (≈ 221 µM) in data set [1]; 59 µg/mL (≈ 132 µM) in [3]; 32.3 µg/mL (≈ 72.1 µM) in data set [4]; 23.1 µg/mL (≈ 51.5 µM) in [5]; 36.4 µg/mL (≈ 81.3 µM) in data set [6]. Besides, in data set [2], the Activity entry is “Non-Toxic”.

In the case of `COc1cc2nc(Cl)nc(NS(=O)(=O)c3ccc(C)cc3)c2cc1OC`, the IC50 in [1] was 91.3 µg/mL (≈ 232 µM); in [3], 39.9 µg/mL (≈ 101 µM); in [5], 44.2 µg/mL (≈ 112 µM); in data set [6], 33.5 µg/mL (≈ 85.2 µM). The Activity result in data set [2] is “Non-Toxic”. Also, the result in data set [10] was inactive.

For the molecule `COc1cc2nc(N3CCOCC3)nc(NS(=O)(=O)c3ccc(C)cc3)c2cc1OC`, the IC50 in data set [1] came to 44.2 µg/mL (≈ 99.4 µM); in data set [5], 51.3 µg/mL (≈ 115 µM); in data set [6] it was 92.5 µg/mL (≈ 208 µM). The Activity entry in [2] was “Non-Toxic”. The outcome in data set [8] and in [10] was inactive.

For `COc1cc2nc(N3CCCC3)nc(NS(=O)(=O)c3cccc(C(F)(F)F)c3)c2cc1OC`, the IC50 is 78 µg/mL (≈ 162 µM) in data set [1]; 16 µg/mL (≈ 33.2 µM) in [3]; 22.1 µg/mL (≈ 45.9 µM) in data set [4]; 65.1 µg/mL (≈ 135 µM) in data set [5]; 15.9 µg/mL (≈ 32.9 µM) in data set [6]. Further, the Activity result in data set [2] is “Non-Toxic”.

With `COc1cc2nc(N3CCCC3)nc(NS(=O)(=O)c3ccc(C)cc3)c2cc1OC`, the concentration for half-maximal inhibition (IC50) amounted to 48.1 µg/mL (≈ 112 µM) in data set [12]; 24.1 µg/mL (≈ 56.3 µM) in data set [1]; 8.61 µg/mL (≈ 20.1 µM) in [3]; 20 µg/mL (≈ 46.7 µM) in data set [4]; 14.1 µg/mL (≈ 33 µM) in [5]; 7.06 µg/mL (≈ 16.5 µM) in [6].

As a reminder, the IC50 is the concentration at which inhibition is half-maximal.

These data come from ChEMBL document CHEMBL4014300, “Synthesis and biological evaluation of novel quinazoline-sulfonamides as anti-cancer agents” (Bioorg Med Chem Lett, 2017).
